Results taken from publication PMC10287695, “Non-covalent inhibitors of thioredoxin glutathione reductase with schistosomicidal activity in vivo” (Nature Communications, 2023).

Assays:
[1] = target: T1, S. mansoni TGR (Schistosoma mansoni, UniProt Q962Y6); assay: S. mansoni TGR enzyme inhibition (DTNB reduction); assay type: biochemical; conditions: for % inhibition: TGR
T1 construct: made in house
T1 sequence (Q962Y6 1-598): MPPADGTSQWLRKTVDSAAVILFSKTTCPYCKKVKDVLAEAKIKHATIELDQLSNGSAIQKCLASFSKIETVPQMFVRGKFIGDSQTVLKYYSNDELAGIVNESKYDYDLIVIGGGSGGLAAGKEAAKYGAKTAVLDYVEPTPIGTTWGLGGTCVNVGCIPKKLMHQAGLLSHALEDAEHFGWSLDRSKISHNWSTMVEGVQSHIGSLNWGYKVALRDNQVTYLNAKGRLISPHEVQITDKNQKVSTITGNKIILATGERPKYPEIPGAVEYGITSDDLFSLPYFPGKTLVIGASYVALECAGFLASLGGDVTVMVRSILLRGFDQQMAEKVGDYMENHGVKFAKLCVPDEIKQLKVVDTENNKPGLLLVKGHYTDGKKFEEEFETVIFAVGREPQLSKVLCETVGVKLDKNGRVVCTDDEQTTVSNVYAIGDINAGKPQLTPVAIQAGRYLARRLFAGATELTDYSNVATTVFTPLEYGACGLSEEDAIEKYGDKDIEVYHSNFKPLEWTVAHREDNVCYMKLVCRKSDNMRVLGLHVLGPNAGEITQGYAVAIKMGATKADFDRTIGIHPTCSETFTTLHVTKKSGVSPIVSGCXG
Protocol: (§1) Recombinant TGR, human TrxR1, B. malayi (Bm)TrxR and human GR proteins were expressed and purified as described[20],[69],[79]. The codon optimized sequence for P. falciparum (PfTrxR, https://www.ncbi.nlm.nih.gov/protein/CAA60574.1/) with an N-terminal 6-His tag was synthesized and inserted into pET15b (GenScript) and expressed in BL21 (DE3) cells and purified as described for human GR[20]. TGR and TrxR enzyme inhibition assays were performed in triplicate at 25 °C as described[20] in 0.1 M potassium phosphate (pH 7.4), 10 mM EDTA, 100 µM NADPH and 0.01% Tween-20. […] The reaction was started with addition of an equal volume of DTNB (6 mM) and NADPH (100 µM) and the increase in A412 during the first 3 min was recorded. […] The reaction was preincubated for 15 min. Activity was initiated with the addition of 1 mM GSSG and 100 μM NADPH and initial rates of NADPH oxidation were monitored at 340 nm. The reactions were done in triplicate. The IC50 was calculated in GraphPad Prism.

[2] = test system: S. mansoni newly transformed schistosomula (NTS); assay: Schistosomicidal activity ex vivo, NTS (Cell Titer Glo); assay type: cell-based; conditions: S. mansoni NTS
Protocol: Oncomelania hupensis subsp. hupensis, Chinese strain, infected with S. japonicum, Chinese strain, and Biomphalaria glabrata, strain NMRI, infected with S. mansoni, strain NMRI, were provided by the NIAID Schistosomiasis Resource Center for distribution through BEI Resources, NIAID, NIH. After infections were patent, snails were exposed to bright light for 1 hr to obtain cercariae. Cercariae were mechanically transformed to schistosomula. Briefly, cercariae were placed on ice for 30 min and then centrifuged at 350 × g for 10 mins. The supernatant was decanted and 2 ml of serum-free M199 medium was added to cercarial pellets and vortexed for 1 min until cercarial tails were detached. NTS were purified by layering on 4 °C Percoll gradient suspension containing Eagle’s minimum essential medium, penicillin-streptomycin (10,000 U per ml penicillin/10,000 U per ml streptomycin), and 1 M HEPES in 0.85% NaCl with cercariae suspension and centrifuged at 500 × g for 15 min. Cercarial pellets were resuspended and washed thrice in serum-free M199 medium and collected at 100 × g for 5 min. NTS (240) were transferred to U-bottom 96 well assay plates containing 200 µl of M199 medium supplemented with 5.5 mM D-glucose, penicillin-streptomycin and 5% heat inactivated fetal bovine serum and incubated at 37 °C in a 5% CO2 incubator overnight.
DMSO formulated compounds were diluted with phenol red free M199 medium or RPMI medium for NTS or juvenile and adult worms, respectively, at <1% DMSO final concentrations. NTS, juvenile and adult worms from overnight cultures were tested against compounds in triplicate. Controls were treated with DMSO alone or 5 µM AF as a positive control in appropriate medium. Worm viability was assessed at 24 or 72 h by measuring ATP content of worms using Cell Titer Glo Assay (Promega) as described. Schistosome viabilities in the presence of the compounds were assessed using this formula: % Viability = Averages of Test / Averages of DMSO Control x 100.

[3] = target: T2, Human GR (Homo sapiens, UniProt P00390); assay: Human GR enzyme inhibition (GSSG reduction, NADPH oxidation); assay type: biochemical; conditions: for % inhibition: hGR
T2 construct: made in house
T2 sequence (P00390 44-522): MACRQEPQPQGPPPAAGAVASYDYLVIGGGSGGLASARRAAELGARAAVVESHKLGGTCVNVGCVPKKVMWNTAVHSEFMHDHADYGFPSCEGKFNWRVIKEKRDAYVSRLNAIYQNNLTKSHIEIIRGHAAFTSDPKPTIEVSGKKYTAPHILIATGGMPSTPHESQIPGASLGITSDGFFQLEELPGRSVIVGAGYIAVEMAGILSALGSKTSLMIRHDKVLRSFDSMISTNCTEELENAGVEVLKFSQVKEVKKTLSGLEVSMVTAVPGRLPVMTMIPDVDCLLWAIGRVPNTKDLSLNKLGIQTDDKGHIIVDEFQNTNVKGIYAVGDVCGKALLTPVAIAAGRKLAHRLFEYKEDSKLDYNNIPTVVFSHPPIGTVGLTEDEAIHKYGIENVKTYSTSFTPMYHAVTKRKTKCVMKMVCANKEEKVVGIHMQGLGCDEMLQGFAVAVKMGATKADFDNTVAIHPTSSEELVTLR
Protocol: Recombinant TGR, human TrxR1, B. malayi (Bm)TrxR and human GR proteins were expressed and purified as described[20],[69],[79]. The codon optimized sequence for P. falciparum (PfTrxR, https://www.ncbi.nlm.nih.gov/protein/CAA60574.1/) with an N-terminal 6-His tag was synthesized and inserted into pET15b (GenScript) and expressed in BL21 (DE3) cells and purified as described for human GR[20]. TGR and TrxR enzyme inhibition assays were performed in triplicate at 25 °C as described[20] in 0.1 M potassium phosphate (pH 7.4), 10 mM EDTA, 100 µM NADPH and 0.01% Tween-20. TGR, human TrxR1 and BmTrxR (all at 4 nM) and PfTrxR (50 nM) were preincubated with the compounds for 15 min. The reaction was started with addition of an equal volume of DTNB (6 mM) and NADPH (100 µM) and the increase in A412 during the first 3 min was recorded. […] […] Activity was initiated with the addition of 1 mM GSSG and 100 μM NADPH and initial rates of NADPH oxidation were monitored at 340 nm. The reactions were done in triplicate. The IC50 was calculated in GraphPad Prism.

[4] = test system: Vero cells; assay: Cytotoxicity in mammalian cells (Cell Titer Glo); assay type: cell-based; conditions: Vero cells
Protocol: Following overnight incubation, formulated DMSO-compound stock solutions were diluted with DMEM at <1% DMSO final concentrations. […] Vero cells treated similarly with different concentrations of PZQ, MZM and AF (Cayman Chemicals) were used as positive controls.

[5] = target: T3, Human TrxR1 (Homo sapiens, UniProt Q16881); assay: Human TrxR1 enzyme inhibition (DTNB reduction); assay type: biochemical; conditions: 15 minutes pre-incubation
T3 construct: made in house
T3 sequence (Q16881 1-499 isoform Q16881-5): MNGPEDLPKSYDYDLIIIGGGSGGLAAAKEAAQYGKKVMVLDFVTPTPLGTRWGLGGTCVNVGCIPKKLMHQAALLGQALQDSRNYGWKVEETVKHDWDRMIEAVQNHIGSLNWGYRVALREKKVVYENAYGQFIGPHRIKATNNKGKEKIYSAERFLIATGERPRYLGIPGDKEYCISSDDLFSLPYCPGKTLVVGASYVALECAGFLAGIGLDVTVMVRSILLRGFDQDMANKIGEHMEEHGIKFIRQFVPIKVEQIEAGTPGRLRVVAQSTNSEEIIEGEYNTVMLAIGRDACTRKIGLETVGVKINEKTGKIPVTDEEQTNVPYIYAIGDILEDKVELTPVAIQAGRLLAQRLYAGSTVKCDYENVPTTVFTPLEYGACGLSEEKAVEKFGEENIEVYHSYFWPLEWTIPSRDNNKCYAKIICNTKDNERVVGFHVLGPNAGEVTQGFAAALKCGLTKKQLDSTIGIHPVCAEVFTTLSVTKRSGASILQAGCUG
Protocol: as §1

[6] = 15 minutes pre-incubation, compound 15 µM
[7] = 15 minutes pre-incubation, compound 30 µM
[8] = 15 minutes pre-incubation, compound 66.7 µM
[9] = 6 hours pre-incubation, compound 15 µM
[10] = 6 hours pre-incubation, compound 30 µM
[11] = 6 hours pre-incubation, compound 66.7 µM
[12] = 15 minutes pre-incubation, 15 µM
[13] = 15 minutes pre-incubation, 30 µM
[14] = 15 minutes pre-incubation, 66.7 µM

Compound: Cc1oc(C2CCCCC2)nc1CN[C@@H]1C[C@@H]2C[C@H]([C@H]1C)C2(C)C [C4]
- % inhibition [1, 6]: 4.307%
- % inhibition [1, 7]: 7.284%
- % inhibition [1, 8]: 12.4488%
- % inhibition [1, 9]: 20.5703%
- % inhibition [1, 10]: 43.128%
- % inhibition [1, 11]: 68.6238%
- % viability ([2]; Conc. 1 µM): 51.9254%
- % viability ([2]; Conc. 5 µM): 22.4326%
- % viability ([2]; Conc. 15 µM): 2.552%
- % viability ([2]; Conc. 30 µM): 0.3078%
- % viability ([2]; Conc. 50 µM): 0.1166%
- % inhibition [3, 6]: -0.5314%
- % inhibition [3, 7]: -1.471%
- % inhibition [3, 8]: -0.894%
- % inhibition [3, 9]: -2.859%
- % inhibition [3, 10]: -0.4408%
- % inhibition [3, 11]: -0.3554%
- % viability ([4]; Conc. 5 µM): 99.7864%
- % viability ([4]; Conc. 10 µM): 99.8193%
- % viability ([4]; Conc. 25 µM): 95.3884%
- % viability ([4]; Conc. 35 µM): 94.379%
- % viability ([4]; Conc. 50 µM): 91.2714%

Compound: C[C@@H]1[C@H]2C[C@@H](C[C@H]1NC(=O)Cc1nc3ccccc3n1C1CCCCC1)C2(C)C [C10]
- TGR % inhibition ([1]; 15 minutes pre-incubation, 1 µM): 1.833%
- TGR % inhibition ([1]; 15 minutes pre-incubation, 5 µM): 5.968%
- TGR % inhibition [1, 12]: 42.2698%
- TGR % inhibition [1, 13]: 76.1929%
- TGR % inhibition [1, 14]: 82.1691%
- hsTrxR % inhibition ([5]; 1 µM): 3.958%
- hsTrxR % inhibition ([5]; 5 µM): 29.0366%
- hsTrxR % inhibition ([5]; 15 µM): 63.1349%
- hsTrxR % inhibition ([5]; 30 µM): 85.1161%
- hsTrxR % inhibition ([5]; 66.7 µM): 92.1898%
- hGR % inhibition [3, 12]: -6.32%
- hGR % inhibition [3, 13]: -6.329%
- hGR % inhibition [3, 14]: 1.247%
- hGR % inhibition ([3]; 6 hours pre-incubation, 15 µM): -1.804%
- hGR % inhibition ([3]; 6 hours pre-incubation, 30 µM): -1.476%
- hGR % inhibition ([3]; 6 hours pre-incubation, 66.7 µM): -1.27%
